From US20120014880A1, “METHOD FOR THE PREVENTION AND TREATMENT OF ESSENTIAL TREMOR BY REGULATING alpha1G T-TYPE CALCIUM CHANNEL OR BY T-TYPE CALCIUM CHANNEL BLOCKERS” (Korea Advanced Institute of Science and Technology, priority 2007, published 2012) come the findings set out here.

The test system of the assay is harmaline induced tremor. Description: Inhibition of harmaline induced tremor by T-type channel blockers, measured with tremor quantification apparatus. Format: in vivo, mouse. The source says:
In the screening method of the present invention, symptoms of essential tremor of step 3) are involuntary, regular movements of hands, arms, head, face, vocal band, trunk or legs. The symptoms can be checked by movement artifact of electroenphalograph (EEG) or tremor quantification apparatus, but not always limited thereto. The tremor quantification apparatus herein is to detect tremor of the mouse, in which stainless test cage is hung on the support and the bottom of the cage is attached with accelerometer connected with electric wire to analog-digital converter so that the generated analog signals can be converted into digital signals recognizable by computer. Thereby, tremor of the mouse can be measured by analyzing the digital signals recognized by computer. […] When the strength of oscillation for 5 seconds under the frequency of 10-18 Hz, that is the characteristic frequency of harmaline induced tremor, was at least 65 dB, it was diagnosed as tremor and the time point of break (onset), duration, strength, and the maximum frequency were all measured and compared between the wild type mice and the transgenic mice. The method for measuring tremor is developed on the basis of described method in the following references (Long M A. et al., J. Neurosci. 2002 Dec. 15, 22(24):10898-905; Milner, T E. et al., J. Neurophysiol. 1995 June, 73(6):2568-77).
The α1G−/−transgenic mice generated in Example 1 and the wild-type mice were administered with the tremor inducing agents, oxotremorine (0.3 mg/kg), penitrem A (1.0 mg/kg) and harmaline (9 mg/kg) respectively by intraperitoneal injection to induce tremor. Tremor was investigated by using movement artifact of electroenphalograph (EEG) and tremor quantification apparatus designed by the present inventors. […] The accelerometer was connected to analog-digital converter (Digidata1320, Axon instrument Inc) by electric wire so that the generated analog signals could be converted into digital signals recognizable by computer. Thereby, tremor of the mouse was measured by analyzing the digital signals recognized by computer. The accelerometer was quipped to the test cage where the animals were located, and the test cage was hung in the air. The level of tremor of the animal was quantified by measuring the oscillation of the test cage. […] When the strength of oscillation for 5 seconds under the frequency of 10-18 Hz, that is the characteristic frequency of harmaline induced tremor, was at least 65 dB, it was diagnosed as tremor and the time point of development of tremor (onset), duration, strength, and the maximum frequency were all measured and compared between the wild type mice and the knockout mice.
The wild-type mouse (α1G+/+) was administered with 10 mg/kg of mibefradil by intraperitoneal injection 30 minutes before harmaline injection to investigate the therapeutic effect of mibefradil on harmaline induced tremor. In the meantime, osmotic pump (Model 1002, 0.25 ul/hour, Alzet) containing 20 mM of mibefradil was inserted into the brain of the wild-type mouse (α1G+/+). Two days later, the therapeutic effect on harmaline induced tremor was investigated by using the tremor quantification apparatus of Example 2.
The wild-type mice (α1G+/+) were administered with 150 mg/kg and 300 mg/kg of ethosuximide by intraperitoneal injection 30 minutes before harmaline injection to investigate the therapeutic effect of ethosuximide on harmaline induced tremor. For the investigation, the tremor quantification apparatus of Example 2 was used.

The mark [1] stands for this setting: wild-type mice (α1G+/+), 300 mg/kg intraperitoneal injection 30 minutes before harmaline injection.

Each structure is given as a SMILES string.

In the case of `CCC1(C)CC(=O)NC1=O` (stereo not drawn) [ethosuximide], for the setting “wild-type mice (α1G+/+), 150 mg/kg intraperitoneal injection 30 minutes before harmaline injection”, the “tremor inhibiting effect on harmaline induced tremor” value (“tremor inhibiting effect” below) is listed as “tremor inhibiting effect was observed”. Under setting [1], the “mice that did not exhibit oscillation, symptom of tremor” value came out at 60%; the “mice that showed tremor” value is recorded as 40%; the “tremor inhibiting effect” value is “tremor inhibiting effect was observed”.

`COCC(=O)O[C@]1(CCN(C)CCCc2nc3ccccc3[nH]2)CCc2cc(F)ccc2[C@@H]1C(C)C` [mibefradil]: the “tremor inhibiting effect” value by setting is: (wild-type mouse (α1G+/+), 10 mg/kg intraperitoneal injection 30 minutes before harmaline injection) “tremor inhibiting effect was not detected”; (wild-type mouse (α1G+/+), osmotic pump containing 20 mM, 0.25 ul/hour, directly into inferior olive (IO) of the brain, two days later) “tremor inhibiting effect was observed”.
